Measured values from patent US11472843B2, “Malacidins and methods of use” (The Rockefeller University, priority 2017, dated 2022).

Assays:
S. aureus NRS100 = assay: MIC assay, S. aureus NRS100; assay type: cell-based, Staphylococcus aureus; details: β-lactams
Method: (§1) MIC assays were performed in duplicate in 96-well microtiter plates on the basis of the protocol recommended by the Clinical and Laboratory Standards Institute (Cockerill, 2012, Clinical and Laboratory Standards Institute). All presented data are the average of at least three independent assays. Stock solutions of malacidin or daptomycin (2 mg ml^−1 in H2O) were added to the first well in a row and serially diluted (twofold per transfer) across the microtiter plate. CaCl2 was supplemented to media at a final concentration of 15 mM and fetal bovine serum (ATCC) was added to media (1:10) to test the effect of serum. Overnight cultures of bacteria were diluted 5,000-fold, and 50 μl was used as an inoculum in each well. MIC values were determined by visual inspection after 18 h incubation (30° C., static growth). For the enhanced calcium titration experiments, standard MIC assays were performed with methicillin-resistant Staphylococcus aureus (MRSA) PFGE strain type USA300 in media supplemented with CaCl2 at: 25.0, 18.8, 14.1, 7.03, 3.52, 2.50, 1.76, 0.880, 0.440, 0.250 and 0 mM. To assess the effects of monovalent and divalent cations on malacidin activity, standard MIC assays were performed with MRSA USA300 in media supplemented with 15 mM CaCl2, MgCl2, MnCl2, ZnCl2, SrCl2, NaCl and KCl. To evaluate the effects of pulmonary surfactants on activity against a community-acquired pneumonia-causing pathogen, standard MIC assays were performed with Streptococcus pneumoniae TCH8431 in media supplemented with both 15 mM […] and Survanta (beractant) at a final concentration of 5, 1, 0.5, 0.25 or 0% (volume/volume (v/v) percent).

S. aureus NRS146 = assay: MIC assay, S. aureus NRS146; assay type: cell-based, Staphylococcus aureus; details: β-lactams
Method: as §1

[1] = system: Bacillus subtilis 168 IAI; assay: MIC assay, B. subtilis; assay type: cell-based
Method: as §1

HEK293 cells = assay type: cell-based, human; details: viability, in the presence of calcium, 4.5 h
Method: (§2) Cytotoxicity against human cell lines was tested using an ATP release assay, CelITiter-Glo (Promega), according to the manufacturer's instructions. HEK293 cells (293FT, Thermo Fisher Scientific, no. R700-07) and MRC5 cells (ATCC CCL-171) were grown in complete DMEM media supplemented with 10% FBS, and were inspected visually for authentication and tested for mycoplasma contamination using a MycoAlert detection kit (Lonza). Cells were grown to confluence, trypsinized, counted and plated in 384-well cell culture plates at an appropriate density (2,500 cells per well for HEK293 and 1000 cells per well for MRC5). The test compound was added 24 h later in the presence of calcium, and viability was determined after 4.5 h of incubation. Experiments were performed with biological replicates. Haemolytic activity was evaluated by a red blood cell disc diffusion assay. Twenty-microlitre stocks of malacidin A and Triton X-100 were infused on filter discs, dried completely and then overlaid on 5% sheep blood agar plates (Hardy Diagnostics). The plates were incubated for 24 h at 20° C., and then checked for lysis.

MRC5 cells = assay type: cell-based, human
Method: as §2

MRSA USA300 = assay: Membrane depolarization assay (DiBAC4); assay type: cell-based, Staphylococcus aureus; details: S. aureus cells pretreated with DiBAC4; 20 μg ml^−1
Method: The effects of malacidin on membrane integrity was assessed using SYTOX green. In brief, single colonies of MRSA USA300 were grown in LB media with and without 15 mM CaCl2 to an OD600 nm of 0.35. Nine hundred microlitres of cells were mixed with 100 μL of 17 μM SYTOX green dye (Thermo Fisher). The resulting mixture was incubated for 5 min at 22° C., and then distributed to a microtiter plate at 50 μl per well. An initial reading of fluorescence pre-antibiotic addition was measured at excitation and emission wavelengths of 488 nm and 523 nm, respectively. Fifty microlitres of antibiotics was added to respective wells at a final concentration of 20 μg ml^−1. Measurements were immediately collected for 10 min. To assess the effects of malacidin on membrane depolarization, similar assays were set up using the membrane potential probe, DiBAC4 (bis-(1,3-dibutylbarbituric acid)trimethine oxonol). Single colonies of MRSA USA300 were grown in LB media with and without 15 mM CaCl2 to an OD600 nm of 0.35. Nine hundred microlitres of cells were mixed with 100 μl of 20 μg ml DiBAC4dye (Thermo Fisher). The resulting mixture was incubated for 5 min at 22° C., and then distributed to a microtiter plate at 50 μl per well. An initial reading of fluorescence pre-antibiotic addition was measured at excitation and emission wavelengths of 492 nm and 515 nm, respectively. […]

[2] = Complex formation with cell wall precursors (TLC mobility shift), lipid II; assay type: binding
Method: Binding of malacidin to C55-P and lipid II was evaluated by incubating 1 nmol of each purified precursor with 0.5 nmol of malacidin or daptomycin in 100 mM Tris-HCl, pH 7.5, 0.1% Triton X-100, 13 mM MgCl2, and with or without 25 mM CaCl2, for 60 min at 37° C. Subsequently, the mixture was extracted twice with n-BuOH/6 M pyridinium acetate buffer, pH 4.2 (3:1, v/v). The butanol fraction was evaporated and the residue was dissolved in CHCl3/methanol (1:1, v/v). The resuspension was analysed for the loss of unbound malacidin or daptomycin to a complex by TLC analysis using chloroform/methanol/water/ammonia (88:48:10:1, v/v/v/v) as the solvent and detection by 254/366 nm visualization. Experiments were performed with biological replicates.

malacidin A
MIC (S. aureus NRS100; S. aureus NRS100, tetracycline, 15 mM CaCl2): 0.2-0.8 μg m1^−1
MIC (S. aureus NRS100; Staphylococcus aureus NRS100, Tetracycline): 0.2 to 0.8 µg/mL
MIC (S. aureus NRS146; S. aureus NRS146, vancomycin (VISA), 15 mM CaCl2): 0.4-0.8 μg m1^−1
MIC (S. aureus NRS146; Staphylococcus aureus NRS146, Vancomycin (VISA)): 0.4 to 0.8 µg/mL
MIC ([1]; B. subtilis, 15 mM CaCl2): 0.2-0.4 μg m1^−1
MIC ([1]; Bacillus subtilis 168 IAI): 0.2 to 0.4 µg/mL
IC50 (HEK293 cells): >100 μg m1^−1
MIC (a = Viability assessed by ATP release assay) (MRC5 cells): >100a μg mL^−1
IC50 (MRC5 cells; MRC5, viability, in the presence of calcium, 4.5 h): >100 μg m1^−1
Loss of membrane potential (DiBAC4) (MRSA USA300): no significant loss of membrane potential
Lipid-II-binding activity (TLC mobility shift) ([2]; 1 nmol precursor, 0.5 nmol antibiotic): lipid-II-dependent disappearance of the malacidin band
Calcium dependence of the interaction with lipid II ([2]; with or without 25 mM CaCl2): calcium-dependent
